Laboratory results: patent US11084814B2, “Pyrido[3, 4-d]pyrimidine derivative and pharmaceutically acceptable salt thereof” (Teijin Pharma Limited, priority 2016, dated 2021)

What was measured:
[1] = biological target: T1, CDK4/cyclin D3 (Homo sapiens, UniProt P11802); experiment: Human CDK4/cyclin D3 inhibitory activity (QS S Assist CDK4/Cyclin D3_FP Kit, IMAP fluorescent polarization); format: biochemical; details: read-out: CDK4 Activity symbol
T1 construct: purchased Carna Biosciences, Inc. QS S Assist CDK4/Cyclin D3_FP Kit
Experimental: Human CDK4/Cyclin D3 Inhibitory Activity
(§1) Each compound was analyzed for CDK4/cyclin D3 inhibitory activity with an assay kit (QS S Assist CDK4/Cyclin D3_FP Kit, available from Carna Biosciences, Inc.). This assay kit determines kinase activity on the basis of the IMAP technology by Molecular Devices. Specifically, the kinase activity is determined through quantification of a variation in fluorescent polarization caused by binding of a kinase-phosphorylated fluorescent substance to an IMAP-binding reagent.
Each solution was prepared with the 10× assay buffer attached to the kit or a separately prepared assay buffer having the same composition as the assay buffer attached to the kit. An assay buffer was prepared by 10-fold dilution of the 10× assay buffer with distilled water. The assay buffer contains 20 mM HEPES (pH 7.4), 0.01% Tween20, and 2 mM dithiothreitol. A test compound solution was prepared by dilution of the test compound with dimethyl sulfoxide (DMSO) to a concentration 100 times higher than the final concentration and then 25-fold dilution with the assay buffer to a concentration four times higher than the final concentration. An ATP/substrate/Metal solution was prepared by five-fold dilution of the 5×ATP/substrate/Metal solution attached to the kit with the assay buffer. An enzyme solution was prepared by dilution of the CDK4/cyclin D3 attached to the kit with the assay buffer to a concentration twice higher than the final concentration (final concentration of CDK4/cyclin D3: 12.5 to 25 ng/well). A detection reagent was prepared by five-fold dilution of each of 5×IMAP-binding buffer A and 5×IMAP-binding buffer B with distilled water, mixing of IMAP-binding buffer A with IMAP-binding buffer B at a ratio of 85:15, and 400-fold dilution of the IMAP-binding reagent with the mixed buffer.
(§2) The test compound solution (5 μL/well) and the ATP/substrate/Metal solution (5 μL/well) were added to a 384-well plate, and the enzyme solution or the assay buffer (10 μL/well) was added to the plate (total amount of the reaction mixture: 20 μL/well) for initiation of enzymatic reaction. […] The reaction was performed at room temperature for 45 minutes, and the detection reagent (60 μL/well) was then added to the plate, followed by further reaction for 30 minutes at room temperature under light shielding conditions. Subsequently, fluorescent polarization was determined with a microplate reader at an excitation wavelength of 485 nm and an emission wavelength of 535 nm.
(§3) The percent inhibition of enzyme activity was calculated for each test compound (note: enzyme activity=100% in the case of addition of the enzyme solution and addition of DMSO instead of the test compound solution, whereas enzyme activity […] in the case of addition of the assay buffer instead of the enzyme solution, and addition of DMSO instead of the test compound solution). The percent inhibition of enzyme activity was fitted to a dose-response curve, to determine a 50% inhibitory concentration against CDK4/cyclin D3.
In each table, “+++” corresponds to IC50<10 nM. “++” 10 nM […] IC50<100 nM, and “+” 100 nM≤IC50.

[2] = biological target: T2, CDK2/cyclin A2 (Homo sapiens, UniProt P24941); experiment: Human CDK2/cyclin A2 inhibitory activity (QS S Assist CDK2/Cyclin A2_FP Kit, IMAP fluorescent polarization); format: biochemical; details: read-out: CDK2 Activity symbol
T2 construct: purchased Carna Biosciences, Inc. QS S Assist CDK2/Cyclin A2_FP Kit
Experimental: Human CDK2/Cyclin A2 Inhibitory Activity
as §1, with “CDK2/cyclin A2” for “CDK4/cyclin D3”, “CDK2/Cyclin A2_FP” for “CDK4/Cyclin D3_FP”
An assay buffer was prepared by 10-fold dilution of the 10× assay buffer attached to the kit with distilled water, and each solution was prepared with the assay buffer. The assay buffer contained 20 mM HEPES (pH 7.4), 0.01% Tween 20, and 2 mM dithiothreitol. A test compound solution was prepared by dilution of the test compound with dimethyl sulfoxide (DMSO) to a concentration 100 times higher than the final concentration and then 25-fold dilution with the assay buffer to a concentration four times higher than the final concentration. An ATP/substrate/Metal solution was prepared by five-fold dilution of the 5×ATP/substrate/Metal solution attached to the kit with the assay buffer. An enzyme solution was prepared by dilution of the CDK2/cyclin A2 attached to the kit with the assay buffer to a concentration twice higher than the final concentration (final concentration of CDK2/cyclin A2: 2.5 ng/well). A detection reagent was prepared by five-fold dilution of 5×IMAP-binding buffer A with distilled water and 400-fold dilution of the IMAP-binding reagent with the diluted buffer.
as §2, with “60” for “45”
as §3, with “enzyme solution” for “enzyme solution,”, “against CDK2/cyclin A2.” for “against CDK4/cyclin D3.”
In each table, “+++” corresponds to IC50<10 nM, “++” 10 nM≤IC50<100 nM, and “+” 100 nM≤IC50.

T1 sequence (P11802 whole entry): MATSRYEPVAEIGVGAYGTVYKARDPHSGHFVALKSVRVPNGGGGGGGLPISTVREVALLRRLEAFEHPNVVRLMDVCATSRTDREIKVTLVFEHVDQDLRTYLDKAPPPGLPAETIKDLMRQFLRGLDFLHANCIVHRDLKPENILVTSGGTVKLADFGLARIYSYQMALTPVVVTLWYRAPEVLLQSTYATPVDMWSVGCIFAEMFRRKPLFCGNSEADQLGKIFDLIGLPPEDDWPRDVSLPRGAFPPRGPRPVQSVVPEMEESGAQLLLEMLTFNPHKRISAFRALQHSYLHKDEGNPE
T1 sequence (P30281 whole entry partner): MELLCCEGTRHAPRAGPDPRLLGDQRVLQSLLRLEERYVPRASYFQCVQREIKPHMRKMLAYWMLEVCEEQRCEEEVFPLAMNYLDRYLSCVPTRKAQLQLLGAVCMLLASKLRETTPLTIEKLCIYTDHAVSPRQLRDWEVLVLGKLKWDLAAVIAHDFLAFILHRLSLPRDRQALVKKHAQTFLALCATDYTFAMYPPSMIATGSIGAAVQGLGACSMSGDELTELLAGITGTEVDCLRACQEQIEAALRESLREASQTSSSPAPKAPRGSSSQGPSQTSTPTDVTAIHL

| SMILES | IC50 [1] | IC50 [2] |
| --- | --- | --- |
| CN1CCN(c2ccc(Nc3ncc4cc(CO)nc(N5CCOCC5)c4n3)nc2)CC1 [Compound 1] | < 10 nM | ≥ 100 nM |
| CN1CCN(c2ccc(Nc3ncc4cc(CO)nc(N5CCCCC5)c4n3)nc2)CC1 [Compound 2] | < 10 nM | ≥ 100 nM |
| CN1CCN(c2ccc(Nc3ncc4cc(CO)nc(N5CCCCC5=O)c4n3)nc2)CC1 [Compound 3] | ≥ 100 nM | ≥ 100 nM |
| CN1CCN(c2ccc(Nc3ncc4cc(C(F)F)nc(N5CCOCC5)c4n3)nc2)CC1 [Compound 4] | 10 to 100 nM | ≥ 100 nM |
| CN1CCN(c2ccc(Nc3ncc4cc(CO)nc(C5CCCCC5)c4n3)nc2)CC1 [Compound 5] | < 10 nM | ≥ 100 nM |
| CN1CCN(c2ccc(Nc3ncc4cc(CO)nc(-c5ccccc5)c4n3)nc2)CC1 [Compound 6] | < 10 nM | ≥ 100 nM |
| OCc1cc2cnc(Nc3ccc(N4CCNCC4)cn3)nc2c(N2CCOCC2)n1 [Compound 7] | < 10 nM | ≥ 100 nM |
| FC(F)c1cc2cnc(Nc3ccc(N4CCNCC4)cn3)nc2c(N2CCOCC2)n1 [Compound 8] | 10 to 100 nM | ≥ 100 nM |
| OCc1cc2cnc(Nc3ccc(N4CCNCC4)cn3)nc2c(N2CCCCC2)n1 [Compound 9] | < 10 nM |  |
| OCc1cc2cnc(Nc3ccc(N4CCNCC4)cn3)nc2c(-c2ccccc2)n1 [Compound 10] | 10 to 100 nM |  |
| FC(F)c1cc2cnc(Nc3ccc(N4CCNCC4)cn3)nc2c(N2CCCCC2)n1 [Compound 11] | < 10 nM |  |
| FC(F)c1cc2cnc(Nc3ccc(N4CCNCC4)cn3)nc2c(-c2ccccc2)n1 [Compound 12] | < 10 nM |  |
| CN1CCN(c2ccc(Nc3ncc4cc(C(F)F)nc(N5CCCCC5)c4n3)nc2)CC1 [Compound 13] | < 10 nM |  |
| Cc1ccc(-c2nc(CO)cc3cnc(Nc4ccc(N5CCNCC5)cn4)nc23)cc1 [Compound 14] | < 10 nM |  |
| Cc1ccccc1-c1nc(CO)cc2cnc(Nc3ccc(N4CCNCC4)cn3)nc12 [Compound 15] | 10 to 100 nM |  |
| OCc1cc2cnc(Nc3ccc(N4CCNCC4)cn3)nc2c(-c2ccsc2)n1 [Compound 16] | < 10 nM |  |
| OCc1cc2cnc(Nc3ccc(N4CCNCC4)cn3)nc2c(-c2ccoc2)n1 [Compound 17] | 10 to 100 nM |  |
| Cc1ccc(-c2nc(CO)cc3cnc(Nc4ccc(N5CCN(C)CC5)cn4)nc23)cc1 [Compound 18] | < 10 nM |  |
| Cc1ccccc1-c1nc(CO)cc2cnc(Nc3ccc(N4CCN(C)CC4)cn3)nc12 [Compound 19] | < 10 nM |  |
| CN1CCN(c2ccc(Nc3ncc4cc(CO)nc(-c5ccsc5)c4n3)nc2)CC1 [Compound 20] | < 10 nM |  |
| CN1CCN(c2ccc(Nc3ncc4cc(CO)nc(-c5ccoc5)c4n3)nc2)CC1 [Compound 21] | 10 to 100 nM |  |
| CN1CCN(c2ccc(Nc3ncc4cc(CO)nc(C5=CCCCC5)c4n3)nc2)CC1 [Compound 22] | < 10 nM |  |
| O=C(O)c1cc2cnc(Nc3ccc(N4CCNCC4)cn3)nc2c(N2CCCCC2)n1 [Compound 23] | ≥ 100 nM |  |

| SMILES | IC50 [1] | IC50 [2] |
| --- | --- | --- |
| CC(O)c1cc2cnc(Nc3ccc(N4CCNCC4)cn3)nc2c(N2CCCCC2)n1 (stereo not shown) [Compound 24] | < 10 nM | ≥ 100 nM |
| COC(=O)c1cc2cnc(Nc3ccc(N4CCNCC4)cn3)nc2c(N2CCCCC2)n1 [Compound 25] | 10 to 100 nM | ≥ 100 nM |
| CC(=O)c1cc2cnc(Nc3ccc(N4CCNCC4)cn3)nc2c(N2CCCCC2)n1 [Compound 26] | 10 to 100 nM | ≥ 100 nM |
| CN(C)C(=O)c1cc2cnc(Nc3ccc(N4CCNCC4)cn3)nc2c(N2CCCCC2)n1 [Compound 27] | 10 to 100 nM | ≥ 100 nM |
| NC(=O)c1cc2cnc(Nc3ccc(N4CCNCC4)cn3)nc2c(N2CCCCC2)n1 [Compound 28] | 10 to 100 nM | ≥ 100 nM |
| CNC(=O)c1cc2cnc(Nc3ccc(N4CCNCC4)cn3)nc2c(N2CCCCC2)n1 [Compound 29] | 10 to 100 nM | ≥ 100 nM |
| Cc1ccccc1-c1nc(C(F)F)cc2cnc(Nc3ccc(N4CCNCC4)cn3)nc12 [Compound 30] | < 10 nM | ≥ 100 nM |
| COCc1cc2cnc(Nc3ccc(N4CCNCC4)cn3)nc2c(N2CCOCC2)n1 [Compound 32] | 10 to 100 nM | ≥ 100 nM |
| Cc1c(CO)nc(N2CCOCC2)c2nc(Nc3ccc(N4CCNCC4)cn3)ncc12 [Compound 33] | < 10 nM | ≥ 100 nM |
| CCC(O)c1cc2cnc(Nc3ccc(N4CCNCC4)cn3)nc2c(N2CCOCC2)n1 (stereo not shown) [Compound 34] | 10 to 100 nM | ≥ 100 nM |
| OC(c1cc2cnc(Nc3ccc(N4CCNCC4)cn3)nc2c(N2CCOCC2)n1)C(F)(F)F (stereo not shown) [Compound 35, 2,2,2-trifluoro-1-(8-morpholino-2-((5-(piperazin-1-yl)pyridin-2-yl)amino)pyrido[3,4-d]pyrimidin-6-yl)ethanol] | 10 to 100 nM | ≥ 100 nM |
| CC(F)(F)c1cc2cnc(Nc3ccc(N4CCNCC4)cn3)nc2c(N2CCOCC2)n1 [Compound 36] | ≥ 100 nM | ≥ 100 nM |
| CC(C)(O)c1cc2cnc(Nc3ccc(N4CCNCC4)cn3)nc2c(N2CCOCC2)n1 [Compound 37] | 10 to 100 nM | ≥ 100 nM |
| OCCc1cc2cnc(Nc3ccc(N4CCNCC4)cn3)nc2c(N2CCOCC2)n1 [Compound 38] | ≥ 100 nM | ≥ 100 nM |
| C[C@@H](O)c1cc2cnc(Nc3ccc(N4CCNCC4)nn3)nc2c(N2CCCC2C(=O)O)n1 (stereo partly shown) [Compound 39] | < 10 nM | ≥ 100 nM |
| C[C@@H](O)c1cc2cnc(Nc3ccc(N4CCNCC4)nn3)nc2c(N2CCCC(C(=O)O)C2)n1 (stereo partly shown) [Compound 40] | < 10 nM | ≥ 100 nM |
| C[C@@H](O)c1cc2cnc(Nc3ccc(N4CCNCC4)nn3)nc2c(N2CCCCC2C(=O)O)n1 (stereo partly shown) [Compound 41] | < 10 nM | ≥ 100 nM |
| COC(C)c1cc2cnc(Nc3ccc(CN4CCNCC4)cn3)nc2c(N2CCCCC2)n1 (stereo not shown) [Compound 43] | < 10 nM |  |
| COC(C)c1cc2cnc(Nc3ccc(CN4CCNCC4)cn3)nc2c(N2CCC3CCNC3C2)n1 (stereo not shown) [Compound 44] | < 10 nM |  |
| COC(C)c1cc2cnc(Nc3ccc(CN4CCNCC4)cn3)nc2c(N2CCC(CO)CC2)n1 (stereo not shown) [Compound 45] | < 10 nM |  |
| COCC1CCN(c2nc(C(C)OC)cc3cnc(Nc4ccc(CN5CCNCC5)cn4)nc23)CC1 (stereo not shown) [Compound 46] | < 10 nM |  |
| CC(O)c1cc2cnc(Nc3ccc(CN4CCN(C)CC4)cn3)nc2c(N2CCOCC2C)n1 (stereo not shown) [Compound 291] | < 10 nM |  |
